Data set [1] concerns E. coli lipopolysacharide (LPS) induced septic shock/endotoxemia in male balb/c mice. Description: Survival of mice injected with E. coli LPS, treated 30 minutes later with compound i.p., observed three days. The conditions noted are these: for Survival rate (%) / Survival/total mice: 30 min after LPS 0.4 mg i.p., three days; for Therapeutic effect compared to the other compounds or to recombinant APC: comparison in words; for Concentration with the best therapeutic effect: concentration in 1 ml injected i.p., effect goes down above it; for Best treatment volume: per body weight of the mouse. In kind it is in vivo. The protocol: The mice used in this invention were male balb/c having body weights around 20 g, five to six weeks old. Each mouse was intraperitoneally injected with E. coli lipopolysacharide (LPS) 0.4 mg in 1 ml sterile saline. After 30 minutes, each mouse was intraperitoneally injected with one of the following compounds: amylamine, isoamylamine, 2-methylbutamine, n-methylbutamine. The above compounds were dissolved in 1 ml sterile saline to be pH 7.4. The E. coli LPS was serotype 0111:B4 obtained from Sigma (St. Louis, Mo.).
Each mouse was intraperitoneally injected with E. coli lipopolysaccharide (LPS) 0.4 mg in 1 ml saline, and was then injected with 1 ml amylamine (represented by SS1) of different concentrations (0%, 0.1%, and 0.3%) 30 minutes later. […] The therapeutic effect goes down if the dose above 0.3%. The best treatment volume of amylamine is 0.15 ml/Kg body weight of the mouse.
Each mouse was intraperitoneally injected with E. coli lipopolysacharide (LPS) 0.4 mg in 1 ml saline, and then injected with 1 ml isoamylamine (represented by SS2) of different concentrations (0%, 0.1%, and 0.3%) 30 minutes later. […] The therapeutic effect goes down if the dose above 0.1%. The best treatment volume of isoamylamine is 0.05 ml/kg body weight of the mouse.
Each mouse was intraperitoneally injected with E. coli lipopolysacharide (LPS) 0.4 mg in 1 ml saline, and then injected with 1 ml 2-methylbutamine (represented by SS3) of different concentrations (0%, 0.1%, and 0.3%) 30 minutes later. […] The therapeutic effect goes down if the dose above 0.1%. The best treatment volume of 2-methylbutamine is 0.05 ml/kg body weight of the mouse.
Each mouse was intraperitoneally injected with E. coli lipopolysacharide (LPS) 0.4 mg in 1 ml saline, and then 30 minutes later injected with 1 ml n-methylbutamine (represented by SS9) of different concentrations (0%, 0.1%, 0.3% and 1.0%) 30 minutes later. […] The therapeutic effect goes down if the dose above 1.0%. The best treatment volume of n-methylbutamine is 0.5 ml/kg body weight of the mouse. The dose of SS9 above 1.0% is toxic to mouse.

In data set [2] the test system is patients with severe sepsis. The conditions noted are these: cited from earlier work.

“Also recorded” adds a separate entry of the source.

For `CCCCCN` [SS1, amylamine], in data set [1] (0.1% in 1 ml i.p.), the “Survival rate (%)” value is 18% and the Survival/total mice is reported as 3/17. In data set [1] (0.3% in 1 ml i.p.), the “Survival rate (%)” value is recorded as 53% and the Survival/total mice is 9/17. In data set [1], the “Therapeutic effect compared to the other compounds or to recombinant APC” value is “higher therapeutic effects and decreased mortality over recombinant APC”; the “Concentration with the best therapeutic effect” value (“Concentration” below) was 0.3%; the Best treatment volume came to 0.15 mL/kg.
On to `CC(C)CCN` [SS2, isoamylamine], for which, in data set [1] (0.1% in 1 ml i.p.), the “Survival rate (%)” value is 83% and the Survival/total mice is listed as 15/18. In data set [1] (0.3% in 1 ml i.p.), the “Survival rate (%)” value was found to be 50% and the Survival/total mice is 9/18. Moreover, in data set [1], the “Therapeutic effect compared to the other compounds or to recombinant APC” value is “more significant therapeutic effect; also recorded: higher therapeutic effects and decreased mortality over recombinant APC”; the “Concentration” value is reported as 0.1%; the Best treatment volume is 0.05 mL/kg.
Regarding `CCC(C)CN` (centres unmarked) [SS3, 2-methylbutamine], in data set [1] (0.1% in 1 ml i.p.), the “Survival rate (%)” value was 53% and the Survival/total mice is given as 16/30. Moreover, in data set [1] (0.3% in 1 ml i.p.), the “Survival rate (%)” value stood at 33% and the Survival/total mice is 10/30. Besides, in data set [1], the “Therapeutic effect compared to the other compounds or to recombinant APC” value was “higher therapeutic effects and decreased mortality over recombinant APC”; the “Concentration” value turned out to be 0.1%; the Best treatment volume came to 0.05 mL/kg.
As for `CCCCNC` [SS9, n-methylbutamine], in data set [1] (0.1% in 1 ml i.p.), the “Survival rate (%)” value is on record as 39% and the Survival/total mice is listed as 5/13. In data set [1] (0.3% in 1 ml i.p.), the “Survival rate (%)” value came out at 54% and the Survival/total mice was 7/13. Further, in data set [1] (1.0% in 1 ml i.p.), the “Survival rate (%)” value is listed as 62% and the Survival/total mice is 8/13. Besides, in data set [1], the “Therapeutic effect compared to the other compounds or to recombinant APC” value was “higher therapeutic effects and decreased mortality over recombinant APC”; the “Concentration” value is given as 1.0%; the Best treatment volume came to 0.5 mL/kg. Further, in data set [1] (concentration in 1 ml i.p.), the “Dose toxic to mouse” value was “above 1.0%”.
Take activated protein C: in data set [2], the “Absolute decrease in mortality” value is 6.1%.
